Like-named read-outs stand apart in the source and are kept apart here.
What was measured:
[1] = test system: plasmodial surface anion channel (PSAC), residual transport; test: Osmotic lysis kinetics, residual PhTMA+ transport in infected erythrocytes (with a primary component inhibitor present); assay type: cell-based, Plasmodium falciparum
Description: (§1) Enriched cells were washed in HBS (150 mM NaCl, 20 mM Na-HEPES, 0.1 mg/mL BSA, pH 7.5) and used for continuous tracking of osmotic lysis in permeant solutes as described. PSAC-mediated uptake was initiated by resuspension of cells in osmotic lysis solutions containing 20 mM Na-HEPES, 0.1 mg/mL BSA with permeant solute or salt added at 280–290 mOsm; where present, inhibitors were added from concentrated stocks in DMSO. Osmotic swelling and lysis at 37°C was then kinetically tracked by recording the transmittance of 700 nm light through the 1 mL cell suspension (Beckman Coulter spectrophotometer, Indianapolis, IN). Regular manual resuspension was used to minimize the effects of cell settling. Solute permeability was calculated using locally developed script as described. The data are presented with normalization to inhibitor-free controls included in each experiment.

[2] = test system: plasmodial surface anion channel (PSAC), primary transport; test: Osmotic lysis kinetics, primary transport (sorbitol / alanine uptake) in infected erythrocytes; assay type: cell-based, Plasmodium falciparum
Description: as §1

P. falciparum [3] = test: Parasite growth inhibition, SYBR Green I assay, 72 h; assay type: cell-based, Plasmodium falciparum; details: for Improvement in growth IC50 in PGIM relative to standard medium: ratio of IC50 standard RPMI 1640-based medium to PGIM, present and prior studies [2]
Description: Efficacy of inhibitors against in vitro parasite growth was evaluated with the SYBR Green I assay for parasite nucleic acid as described. […] These cultures were then lysed (20 mM Tris, 10 mM EDTA, 0.016% saponin, 1.6% Triton X-100, pH 7.5) and incubated for 45 min with SYBR Green I nucleic acid stain at a 5000-fold dilution (Invitrogen, Waltham, MA). The mean fluorescence of replicate wells (excitation, 485 nm; emission, 528 nm) was used to quantify parasite DNA content and growth after normalization to in-plate controls with and without 20 μM chloroquine (100 and 0% growth inhibition, respectively).

P. falciparum [4] = test: Fixed-ratio combination growth inhibition, isobologram analysis; assay type: cell-based, Plasmodium falciparum; details: combination of 0.82 μM cpd 1 and 0.35 μM PRT1-20
Description: Efficacy of inhibitors against in vitro parasite growth was evaluated with the SYBR Green I assay for parasite nucleic acid as described. […] These cultures were then lysed (20 mM Tris, 10 mM EDTA, 0.016% saponin, 1.6% Triton X-100, pH 7.5) and incubated for 45 min with SYBR Green I nucleic acid stain at a 5000-fold dilution (Invitrogen, Waltham, MA). The mean fluorescence of replicate wells (excitation, 485 nm; emission, 528 nm) was used to quantify parasite DNA content and growth after normalization to in-plate controls with and without 20 μM chloroquine (100 and 0% growth inhibition, respectively). Growth inhibition resulting from combinations of PSAC inhibitors was similarly evaluated using fixed ratios of the two compounds [28]. For each experiment, […] of the two inhibitors (10:0, 9:1, …, 1:9, 0:10) were prepared based on the optimal concentrations of each in isolated growth inhibition dose responses. For each ratio, serial dilutions were used to generate dose responses and permit calculation of IC50 values by interpolation; in each experiment, matched dose responses were included for each compound in isolation. […] For each inhibitor combination, synergistic action was quantified using the ∑FIC50 (sum of fractional inhibitor concentrations producing 50% block); values of this parameter below 0.7 indicate strong synergistic action.

[5] = test system: plasmodial surface anion channel (PSAC), residual transport; test: Osmotic lysis kinetics, residual proline transport with 200 μM furosemide; assay type: cell-based, Plasmodium falciparum; details: added to 200 μM furosemide; maximal inhibition less than with PhTMA+
Description: as §1, with “Transport measurements used synchronous trophozoite-stage infected erythrocytes enriched from P. falciparum cultures by Percoll/sorbitol separation to > 95% parasitemia. Enriched” for “Enriched”

[6] = test system: P. knowlesi channel (PSAC); test: Osmotic lysis kinetics in rhesus erythrocytes infected with P. knowlesi; assay type: cell-based; details: 3 μM inhibitor with 200 μM furosemide
Description: as §1

Structure (SMILES): Cc1ccc(C)c(N2CCN(S(=O)(=O)c3ccc(-c4ccc(=O)[nH]n4)s3)CC2)c1 [ISG-21, reference compound]
- Fold less effective against residual PhTMA+ transport than against sorbitol uptake ([1]; comparison of K0.5 values, PhTMA+ + 200 μM furosemide vs sorbitol): up to 3000 fold
- Effect on sorbitol uptake at selected concentration ([2]; 100 nM ISG-21, 2 μM TP-52, residual uptake of PhTMA+ remains): abolish sorbitol uptake
- IC50 (P. falciparum [3]; PGIM): 17.3 ± 1 nM
- IC50 (P. falciparum [3]; PGIM with isoleucine increased to 34 μM): 1250 ± 100 nM
- Improvement in growth IC50 in PGIM relative to standard medium (P. falciparum [3]): significantly improved activity in PGIM

Structure (SMILES): CCCCOc1ccc(C(=O)Nc2ccc(-c3nn4c(C)nnc4s3)cc2)cc1 [PRT1-20]
- Activity against residual PhTMA+ transport compared to PRT-1 ([1]; PhTMA+ with 200 μM furosemide, dose response): improved activity
- Action against the primary transport component compared to PRT-1 ([2]; sorbitol without furosemide, dose response): significantly reduced action
- Parasite growth inhibition, single compound (P. falciparum [3]; applied individually, standard RPMI-1640 based media): low micromolar concentrations
- Concentration in the combination as share of the compound's single drug IC50 (P. falciparum [4]): approximately 10%

Structure (SMILES): CCOc1ccc(C(=O)Nc2ccc(-c3nn4c(C)nnc4s3)cc2)cc1 [PRT-1]
- IC50 ([1]; PhTMA-Cl plus 100 nM ISG-21, read-out: K0.5 for block of residual PhTMA+ transport): 44 nM
- IC50 ([1]; PhTMA-Cl plus 2 μM TP-52, read-out: K0.5 for block of residual PhTMA+ transport): 56 nM
- IC50 ([1]; in combination with 200 μM furosemide, mean ± S.E.M., read-out: K0.5 for block of residual PhTMA+ uptake): 190 ± 3 nM
- IC50 ([2]; sorbitol without furosemide, mean ± S.E.M., read-out: K0.5 against sorbitol uptake (primary channel route)): 590 ± 43 nM
- Effect on residual proline transport [5]: clearly reduced proline transport further
- Effect on residual PhTMA+ transport via the P. knowlesi channel [6]: inhibit
- Improvement in growth IC50 in PGIM relative to standard medium (P. falciparum [3]): did not show measurable changes in efficacy in PGIM

Structure (SMILES): O=C(COc1ccc2ccccc2c1)Nc1cccc(-c2nc3ncccc3o2)c1 [PRT-3]
- Effect on residual PhTMA+ transport via the P. knowlesi channel [6]: inhibit
- Improvement in growth IC50 in PGIM relative to standard medium (P. falciparum [3]): did not show measurable changes in efficacy in PGIM

Source: article PMC4750852, “Synergistic Malaria Parasite Killing by Two Types of Plasmodial Surface Anion Channel Inhibitors” (PLoS ONE, 2016)
